Columns and labels:
BALB/cJRj mice [1] = assay: Elevated plus maze (EPM), acute anxiolytic-like effect; type: in vivo; details: GR125487 1 mg/kg i.p. 15 min before RS67333 1.5 mg/kg i.p.
Description: (§1) RS67333 (1.5 mg/kg, i.p.), diazepam (1.5 mg/kg, i.p.), fluoxetine (18 mg/kg, i.p.) were injected 45 min before testing in the Elevated Plus Maze (EPM), the Novelty Suppressed Feeding (NSF) or the Open Field (OF) in three independent cohorts of male BALB/cJRj mice.
(§2) To ensure the selectivity of the anxiolytic-like effects of RS67333, in a new cohort of male BALB/cJRj mice, GR125487 (1.0 mg/kg, i.p.) dissolved in 0.9% NaCl solution, was injected 15 minutes before RS67333 administration (1.5 mg/kg, i.p.). EPM or NSF occurred 45 min after RS67333 administration (A-S1). Behavioral consequences of the co-administration of GR125487+RS67333 were compared to RS67333 alone, diazepam (1.5 mg/kg, i.p.) fluoxetine (18 mg/kg, i.p.) and vehicle groups (0.9% saline solution, i.p.).
(§3) For mPFC drug infusion, two bilateral cannulae (75 μm-diameter silica capillary tubing inserted in 27G stainless steel catheter) were implanted in the mPFC [stereotaxic coordinates in mm from bregma: A=+2.10, L=±0.50, V=−2.60, A, anterior; L, lateral; and V, ventral, according to (A-S10)] under anesthesia (chloral hydrate, 400 mg/kg, i.p.). […] Diazepam (1.5 mg/kg) was used as a positive control.
In a new cohort of male BALB/cJRj mice, p-CPA was administered twice daily (at 0900 and 1700 h) for 3 consecutive days. RS67333 ([…]) and diazepam ([…]) were then intra-mPFC administered 24 h after the final p-CPA administration and behavioral test (EPM) occurred 45 minutes after local infusion.
The EPM is a widely used behavioral assay for rodents and it has been validated to assess the anti-anxiety effects of pharmacological agents (A-S11). This test was performed as described by (A-S1). The maze is a plus-cross-shaped apparatus, with two open arms and two arms closed by walls linked by a central platform 50 cm above the floor. Mice were individually put in the center of the maze facing an open arm and were allowed to explore the maze during 5 min for the behavioral consequences of an acute systemic administration or mPFC infusion and during 6 min for the optogenetic experiments. The time spent in and the numbers of entries into the open arms were used as an anxiety index. All parameters were measured using a videotracker (EPM3C, Bioseb, Vitrolles, France).

BALB/cJRj mice [2] = assay: Novelty suppressed feeding (NSF), acute anxiolytic-like effect; type: in vivo; details: GR125487 1 mg/kg i.p. 15 min before RS67333 1.5 mg/kg i.p.
Description: as §1, §2, §3
The NSF is a conflict test that elicits competing motivations: the drive to eat and the fear of venturing into the center of a brightly lit arena. The latency to begin eating is used as an index of anxiety/depression-like behavior, because classical anxiolytic drugs as well as chronic antidepressants decrease this measure. The NSF test was carried out during a 10 min period as previously described (A-S12). Briefly, the testing apparatus consisted of a plastic box (50×50×20 cm), the floor of which was covered with approximately 2 cm of wooden bedding. Twenty-four hours prior to behavioral testing, all food was removed from the home cage. At the time of testing, a single pellet of food (regular chow) was placed on a white paper platform positioned in the center of the box. Each animal was placed in a corner of the box, and a stopwatch was immediately started. The latency to eat (defined as the mouse sitting on its haunches and biting the pellet with the use of forepaws) was timed. Immediately afterwards, the animal was transferred to its home cage, and the amount of food consumed by the mouse in the subsequent 5 min was measured, serving as a control for change in appetite as a possible confounding factor.

CA3 pyramidal cells = assay: Whole-cell voltage clamp recordings of spontaneous EPSCs in CA3 slices; type: cell-based, mice; details: NBQX 20 μM added to bath
Description: This chronic CORT elevation dysregulates the hypothalamic-pituitary-adrenal axis (HPA) in a manner similar to that observed in clinical depression. The dose and duration of CORT treatment was selected based on previous studies. CORT (35 μg/ml, equivalent to about 5 mg/kg/day) dissolved in 0.45% hydroxypropyl-o-cyclodextrin (0-CD) or vehicle (VEH) (0.45% j-CD) was available ad libitum in the drinking water in opaque bottles to protect it from light. VEH- and CORT-treated water was changed every 3 days to prevent possible degradation. Contextual Fear Conditioning (CFC): A 3-shock CFC procedure was administered as previously published. Briefly, mice were placed into context A and administered 3 2-s shocks (0.75 mA) at 180 s, 240 s or 300 s following placement into context A. Mice were removed from the context 15 s following the termination of shock (at 317 s). For context retrieval, mice were placed back into context A for 300 s. Electrophysiology: Electrophysiology was conducted as previously described. Statistical Analysis: Results from data analyses are expressed as means±SEM. Alpha was set to 0.05 for all analyses. Data were analyzed using GraphPad Prism v7.0 or v8.0. For all experiments, unless otherwise noted, one- or two-way ANOVAs with repeated-measures were applied to the data as appropriate. Significant main effects and/or interactions were followed by Fisher's PLSD post hoc analysis or unpaired t-tests. Drugs: All drugs were prepared in physiological saline and all injections were administered intraperitoneally (i.p.) in volumes of 0.1 cc per […] body weight unless otherwise noted. Fluoxetine hydrochloride (Flx): Flx (BioTrend Chemicals AG, BG197, Zurich, Germany) was administered in the drinking water (18 mg/kg/day) for 3 weeks before the start of CORT. […] (R,S)-ketamine (K): (R,S)-ketamine (Ketaset III, Ketamine HCl injection, Fort Dodge Animal Health, Fort Dodge, Iowa) was administered in a single dose at 30 mg/kg of body weight 1 week before the start of CFC. […] PF-04995274: PF-04995274 (Sigma, Catalog No. 1331782-27-4, St. Louis, Mo.) was administered a single dose at 3 or 10 mg/kg of body weight 1 week before the start of CFC. PF-04995274 was dissolved in saline using an ultrasonic homogenizer (BioLogics, Model 3000, Manassas, Va.). Osmotic minipump implantation: ALZET osmotic minipumps (Model 2004, […], 28 days) were implanted subcutaneously under isoflurane anesthesia as previously described [S2]. Osmotic minipumps were rotated under the skin two to three times per week. Behavioral Assays: All experiments were approved by the Institutional Animal Care and Use Committee (IACUC) at the New York Psychiatric Institute (NYSPI). Elevated Plus Maze (EPM): Testing was performed as previously described [S3]. Briefly, the maze is a plus-cross-shaped apparatus consisting of four arms, two open and two enclosed by walls, linked by a central platform at a height of 50 cm from the floor. Mice were individually placed in the center of the maze facing an open arm and were allowed to explore the maze for 5 min. The time spent in and the number of entries into the open arms was used as an anxiety index. Videos were scored using ANY-maze behavior tracking software (Stoelting, Wood Dale, Ill.). Novelty-Suppressed Feeding: The NSF is a conflict test that elicits competing motivations: the drive to eat and the fear of venturing into the center of a brightly lit arena. The latency to feed is used as an index of anxiety-like behavior, because classical anxiolytic drugs decrease this measure. The NSF test was carried out during an 8 min period as previously described [S3]. Briefly, the testing apparatus consisted of a plastic box (50×50×20 cm), the floor of which was covered with approximately 2 cm of bedding. For 129S6/SvEv experiments, mice were food restricted for 12 h. For the C57BL/6N experiments, mice were food restricted for 24 h. […]

| Structure (SMILES) | RS67333-induced increase in time and percent time spent in the open arms (EPM) (BALB/cJRj mice [1]) | RS67333-induced increase of ambulatory distance in the open arms divided by total distance (EPM) (BALB/cJRj mice [1]) | effect of RS67333 on the latency to feed (NSF) (BALB/cJRj mice [2]) | large bursts of EPSCs in saline-treated mice (CA3 pyramidal cells) |
| --- | --- | --- | --- | --- |
| COc1[nH]c2ccc(F)cc2c1C(=O)OCC1CCN(CCNS(C)(=O)=O)CC1.NS(=O)(=O)O [GR125487, 5-Fluoro-2-methoxy-[1-[2-[(methylsulfonyl)amino]ethyl]-4-piperidinyl]-1H-indole-3-methylcarboxylate sulfamate] | prevented | prevented | occluded |  |
| NS(=O)(=O)c1cccc2c1c([N+](=O)[O-])cc1nc(O)c(O)nc12 [NBQX, 2,3-dihydroxy-6-nitro-7-sulfamoyl-benzo[f]quinoxaline] |  |  |  | completely blocked |
